Results on 27 molecules are retold here after patent US10221177B2 (HYDRA BIOSCIENCES, INC., priority 2014, dated 2019).

This assay deals with human TRPA1 (Homo sapiens (Human), UniProt O75762). Description: In vitro inhibition of human TRPA1, whole cell patch configuration. The format is cell-based. Conditions: current activation 10 μM AITC, tested concentrations 320 pM to 3.2 μM, read-out: hTRPA1 IC50. In short, it runs like this:
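Compound antagonism measured from voltage ramps (±100 or ±80 mV, 400 ms, every 4 s from −40 mV), analysed at −80 and 80 mV, or at constant −60 mV. HEPES-buffered NaCl bath, pH 7.4, EGTA or 2 mM Ca2+; temperature set by perfusion, within ±2° C; no junction-potential correction.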

Chain of human TRPA1 (O75762 whole entry, the tested form may be a part): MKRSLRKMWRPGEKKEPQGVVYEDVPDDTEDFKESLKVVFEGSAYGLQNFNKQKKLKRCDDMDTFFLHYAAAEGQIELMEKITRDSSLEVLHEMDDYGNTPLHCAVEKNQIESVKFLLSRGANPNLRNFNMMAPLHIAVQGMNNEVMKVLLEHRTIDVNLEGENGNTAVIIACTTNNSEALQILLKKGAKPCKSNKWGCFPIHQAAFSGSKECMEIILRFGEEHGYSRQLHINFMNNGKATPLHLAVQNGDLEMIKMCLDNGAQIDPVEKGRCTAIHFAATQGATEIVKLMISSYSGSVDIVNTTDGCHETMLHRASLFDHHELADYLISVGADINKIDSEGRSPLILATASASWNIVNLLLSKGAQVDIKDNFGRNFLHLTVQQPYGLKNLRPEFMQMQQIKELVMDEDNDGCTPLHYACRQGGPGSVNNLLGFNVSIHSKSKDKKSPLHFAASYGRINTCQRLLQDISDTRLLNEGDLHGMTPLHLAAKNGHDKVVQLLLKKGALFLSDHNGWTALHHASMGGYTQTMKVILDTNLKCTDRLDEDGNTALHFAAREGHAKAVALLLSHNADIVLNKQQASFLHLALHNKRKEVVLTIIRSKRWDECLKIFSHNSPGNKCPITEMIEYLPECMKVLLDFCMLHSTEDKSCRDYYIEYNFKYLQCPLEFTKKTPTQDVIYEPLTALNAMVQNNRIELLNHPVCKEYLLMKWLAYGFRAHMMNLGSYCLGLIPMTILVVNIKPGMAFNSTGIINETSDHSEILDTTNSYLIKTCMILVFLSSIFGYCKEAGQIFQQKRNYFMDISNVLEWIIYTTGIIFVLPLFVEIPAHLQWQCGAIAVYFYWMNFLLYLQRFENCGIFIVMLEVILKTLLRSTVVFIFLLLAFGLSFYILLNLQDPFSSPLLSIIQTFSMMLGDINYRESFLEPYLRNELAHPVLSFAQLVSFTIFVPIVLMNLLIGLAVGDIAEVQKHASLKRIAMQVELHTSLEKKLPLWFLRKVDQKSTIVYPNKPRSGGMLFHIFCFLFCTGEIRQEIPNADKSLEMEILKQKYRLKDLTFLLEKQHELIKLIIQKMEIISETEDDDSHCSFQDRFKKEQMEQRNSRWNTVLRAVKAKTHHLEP

Broadly, the IC50 is the midpoint of a concentration-inhibition curve. `COCC(=O)Cn1c(=O)c2c(ncn2[C@@H](C)C(=O)Nc2cccc(-c3cnc(N4CC5C(C4)C5(F)F)nc3)n2)n(C)c1=O` (stereo partly drawn) [Compound 146, (2S)—N-(6-(2-(6,6-difluoro-3-azabicyclo[3.1.0]hexan-3-yl)pyrimidin-5-yl)pyridin-2-yl)-2-(1-(3-methoxy-2-oxopropyl)-3-methyl-2,6-dioxo-2,3-dihydro-1H-purin-7(6H)-yl)propanamide]: the IC50 stood at 3 nM. On to `CC#CCn1c(=O)c2c(ncn2[C@@H](C)C(=O)Nc2cncc(-c3cnc(N4CC5CC5C4)nc3)n2)n(C)c1=O` (stereo partly drawn) [Compound 261], for which the IC50 came to 5 nM. `Cc1noc(Cn2c(=O)c3c(ncn3CC(=O)Nc3cccc(-c4cnc(C)c(C(F)(F)F)c4)n3)n(C)c2=O)n1` [Compound 241]: the IC50 is 1 nM.

As to `CC(=O)Cn1c(=O)c2c(ncn2[C@@H](C)C(=O)Nc2csc(-c3cnc(N4CC5C(C4)C5(F)F)nc3)n2)n(C)c1=O` (stereo partly drawn) [Compound 56, (2S)—N-(2-(2-(6,6-difluoro-3-azabicyclo[3.1.0]hexan-3-yl)pyrimidin-5-yl)thiazol-4-yl)-2-(3-methyl-2,6-dioxo-1-(2-oxopropyl)-2,3-dihydro-1H-purin-7(6H)-yl)propanamide], the IC50 was determined as 3 nM.

For `CCC(=O)Cn1c(=O)c2c(ncn2[C@@H](C)C(=O)Nc2csc(-c3cnc(C)c(Cl)c3)n2)n(C)c1=O` [Compound 90], the IC50 was 3 nM.

In the case of `CC(=O)Cn1c(=O)c2c(ncn2[C@@H](C)C(=O)Nc2csc(-c3cnc(C)c(F)c3)n2)n(C)c1=O` [Compound 92, (S)—N-(2-(5-fluoro-6-methylpyridin-3-yl)thiazol-4-yl)-2-(3-methyl-2,6-dioxo-1-(2-oxopropyl)-2,3-dihydro-1H-purin-7(6H)-yl)propanamide], the IC50 was found to be 33 nM. The same measure for `Cc1cc(Cn2c(=O)c3c(ncn3[C@@H](C)C(=O)Nc3csc(-c4cnc(C(F)(F)F)c(C)c4)n3)n(C)c2=O)no1` [Compound 94, (S)-2-(3-methyl-1-((5-methylisoxazol-3-yl)methyl)-2,6-dioxo-2,3-dihydro-1H-purin-7(6H)-yl)-N-(2-(5-methyl-6-(trifluoromethyl)pyridin-3-yl)thiazol-4-yl)propanamide]: 3 nM; for `Cc1noc(Cn2c(=O)c3c(ncn3CC(=O)Nc3cccc(-c4cnc(C)c(F)c4)n3)n(C)c2=O)n1` [Compound 231, N-(5′-fluoro-6′-methyl-[2,3′-bipyridin]-6-yl)-2-(3-methyl-1-((3-methyl-1,2,4-oxadiazol-5-yl)methyl)-2,6-dioxo-2,3-dihydro-1H-purin-7(6H)-yl)acetamide]: 16 nM.

For the molecule `Cc1cc(Cn2c(=O)c3c(ncn3CC(=O)Nc3cccc(N4CCN(CC(F)(F)F)CC4)n3)n(C)c2=O)no1` [Compound 214, 2-(3-methyl-1-((5-methylisoxazol-3-yl)methyl)-2,6-dioxo-2,3-dihydro-1H-purin-7(6H)-yl)-N-(6-(4-(2,2,2-trifluoroethyl)piperazin-1-yl)pyridin-2-yl)acetamide], the IC50 was 92 nM. The same measure for `CCC(=O)Cn1c(=O)c2c(ncn2[C@@H](C)C(=O)Nc2cncc(-c3cnc(N4CC5CC5C4)cn3)n2)n(C)c1=O` (stereo partly drawn) [Compound 158, (2S)—N-(5′-(3-azabicyclo[3.1.0]hexan-3-yl)-[2,2′-bipyrazin]-6-yl)-2-(3-methyl-2,6-dioxo-1-(2-oxobutyl)-2,3-dihydro-1H-purin-7(6H)-yl)propanamide]: 6 nM; for `CC(=O)Cn1c(=O)c2c(ncn2CC(=O)Nc2cccc(-c3cnc(C)c(C(F)(F)F)c3)n2)n(C)c1=O` [Compound 234, 2-(3-methyl-2,6-dioxo-1-(2-oxopropyl)2,3-dihydro-1H-purin-7(6H)-yl)-N-(6′-methyl-5′-(trifluoromethyl)-[2,3′-bipyridin]-6-yl)acetamide]: 4 nM; for `Cc1cc(Cn2c(=O)c3c(ncn3[C@@H](C)C(=O)Nc3csc(-c4cnc(C)c(Cl)c4)n3)n(C)c2=O)no1` [Compound 91]: 2 nM. On to `CC(=O)Cn1c(=O)c2c(ncn2CC(=O)Nc2cncc(-c3cnc(C)c(C(F)(F)F)c3)n2)n(C)c1=O` [Compound 245, 2-(3-methyl-2,6-dioxo-1-(2-oxopropyl)-2,3-dihydro-1H-purin-7(6H)-yl)-N-(6-(6-methyl-5-(trifluoromethyl)pyridin-3-yl)pyrazin-2-yl)acetamide], for which the IC50 is 8 nM. On to `Cc1cc(Cn2c(=O)c3c(ncn3CC(=O)Nc3cccc(N4CCC(F)(F)CC4)n3)n(C)c2=O)no1` [Compound 196, N-(6-(4,4-difluoropiperidin-1-yl)pyridin-2-yl)-2-(3-methyl-1-((5-methylisoxazol-3-yl)methyl)-2,6-dioxo-2,3-dihydro-1H-purin-7(6H)-yl)acetamide], for which the IC50 amounted to 122 nM.

As for `CCC(=O)Cn1c(=O)c2c(ncn2[C@@H](C)C(=O)Nc2csc(-c3cnc(C)c(F)c3)n2)n(C)c1=O` [Compound 101, (S)—N-(2-(5-fluoro-6-methylpyridin-3-yl)thiazol-4-yl)-2-(3-methyl-2,6-dioxo-1-(2-oxobutyl)-2,3-dihydro-1H-purin-7(6H)-yl)propanamide], the IC50 worked out at 12 nM.

As for `Cc1cc(-c2cccc(NC(=O)Cn3cnc4c3c(=O)n(Cc3ccon3)c(=O)n4C)n2)cnc1C(F)(F)F` [Compound 224, 2-(1-(isoxazol-3-ylmethyl)-3-methyl-2,6-dioxo-2,3-dihydro-1H-purin-7(6H)-yl)-N-(5′-methyl-6′-(trifluoromethyl)-[2,3′-bipyridin]-6-yl)acetamide], the half-inhibitory concentration (IC50) is 19 nM.

In the case of `COCC(=O)Cn1c(=O)c2c(ncn2[C@@H](C)C(=O)Nc2csc(-c3cnc(N4CC5CC5C4)cn3)n2)n(C)c1=O` (stereo partly drawn) [Compound 264, (2S)—N-(2-(5-(3-azabicyclo[3.1.0]hexan-3-yl)pyrazin-2-yl)thiazol-4-yl)-2-(1-(3-methoxy-2-oxopropyl)-3-methyl-2,6-dioxo-2,3-dihydro-1H-purin-7(6H)-yl)propanamide], the IC50 is 31 nM. The same measure for `Cc1cc(Cn2c(=O)c3c(ncn3CC(=O)Nc3cccc(N4CCC(C(C)(C)F)CC4)n3)n(C)c2=O)no1` [Compound 219, N-(6-(4-(2-fluoropropan-2-yl)piperidin-1-yl)pyridin-2-yl)-2-(3-methyl-1-((5-methylisoxazol-3-yl)methyl)-2,6-dioxo-2,3-dihydro-1H-purin-7(6H)-yl)acetamide]: 23 nM.

In the case of `Cc1noc(Cn2c(=O)c3c(ncn3[C@@H](C)C(=O)Nc3csc(-c4cnc(C(F)(F)F)c(C)c4)n3)n(C)c2=O)n1` [Compound 107, (S)-2-(3-methyl-1-((3-methyl-1,2,4-oxadiazol-5-yl)methyl)-2,6-dioxo-2,3-dihydro-1H-purin-7(6H)-yl)-N-(2-(5-methyl-6-(trifluoromethyl)pyridin-3-yl)thiazol-4-yl)propanamide], the IC50 came out at 1 nM. Turning to `COCC(=O)Cn1c(=O)c2c(ncn2[C@@H](C)C(=O)Nc2csc(-c3ccc(N4CC5C(C4)C5(F)F)nc3)n2)n(C)c1=O` (stereo partly drawn) [Compound 269, (2S)—N-(2-(6-(6,6-difluoro-3-azabicyclo[3.1.0]hexan-3-yl)pyridin-3-yl)thiazol-4-yl)-2-(1-(3-methoxy-2-oxopropyl)-3-methyl-2,6-dioxo-2,3-dihydro-1H-purin-7(6H)-yl)propanamide], the IC50 turned out to be 4 nM. As to `CCN(CC)c1ncc(-c2nc(NC(=O)[C@H](C)n3cnc4c3c(=O)n(Cc3cc(C)on3)c(=O)n4C)cs2)cn1` [Compound 36, (S)—N-(2-(2-(diethylamino)pyrimidin-5-yl)thiazol-4-yl)-2-(3-methyl-1-((5-methylisoxazol-3-yl)methyl)-2,6-dioxo-2,3-dihydro-1H-purin-7(6H)-yl)propanamide], the IC50 is 2 nM. `Cc1cc(Cn2c(=O)c3c(ncn3CC(=O)Nc3ccc4ccccc4n3)n(C)c2=O)no1` [Compound 199, 2-(3-Methyl-1-((5-methylisoxazol-3-yl)methyl)-2,6-dioxo-2,3-dihydro-1H-purin-7(6H)-yl)-N-(quinolin-2-yl)acetamide]: the IC50 came to 404 nM. Consider `C[C@@H](C(=O)Nc1cccc(-c2cnc(N3CCC[C@@H]3C(F)(F)F)nc2)n1)n1cnc2c1c(=O)n(CC#N)c(=O)n2C` [Compound 39, (S)-2-(1-(cyanomethyl)-3-methyl-2,6-dioxo-2,3-dihydro-1H-purin-7(6H)-yl)-N-(6-(2-((R)-2-(trifluoromethyl)pyrrolidin-1-yl)pyrimidin-5-yl)pyridin-2-yl)propanamide], for which the IC50 was 3 nM. As for `CCC(=O)Cn1c(=O)c2c(ncn2[C@@H](C)C(=O)Nc2csc(-c3ccc(N4CC5C(C4)C5(F)F)nc3)n2)n(C)c1=O` (stereo partly drawn) [Compound 80, (2S)—N-(2-(6-(6,6-difluoro-3-azabicyclo[3.1.0]hexan-3-yl)pyridin-3-yl)thiazol-4-yl)-2-(3-methyl-2,6-dioxo-1-(2-oxobutyl)-2,3-dihydro-1H-purin-7(6H)-yl)propanamide], the figure is 1 nM; as for `CCC(=O)Cn1c(=O)c2c(ncn2[C@@H](C)C(=O)Nc2ccnc(-c3ccc(N4CC5CC5C4)nc3)n2)n(C)c1=O` (stereo partly drawn) [Compound 47, (2S)—N-(2-(6-(3-azabicyclo[3.1.0]hexan-3-yl)pyridin-3-yl)pyrimidin-4-yl)-2-(3-methyl-2,6-dioxo-1-(2-oxobutyl)-2,3-dihydro-1H-purin-7(6H)-yl)propanamide], 4 nM. Turning to `CC(=O)Cn1c(=O)c2c(ncn2CC(=O)Nc2csc(-c3cnc(C(F)(F)F)c(C)c3)n2)n(C)c1=O` [Compound 216, 2-(3-methyl-2,6-dioxo-1-(2-oxopropyl)-2,3-dihydro-1H-purin-7(6H)-yl)-N-(2-(5-methyl-6-(trifluoromethyl)pyridin-3-yl)thiazol-4-yl)acetamide], the IC50 amounted to 16 nM. As for `C[C@@H](C(=O)Nc1csc(-c2ccc(Cl)c(Cl)c2)n1)n1cnc2c1c(=O)n(CC#N)c(=O)n2C` [Compound 29, (S)-2-(1-(cyanomethyl)-3-methyl-2,6-dioxo-2,3-dihydro-1H-purin-7(6H)-yl)-N-(2-(3,4-dichlorophenyl)thiazol-4-yl)propanamide], the figure is 1 nM.
